Reference: patent US20160280651A1, “COMPOUNDS THAT INDUCE ABA RESPONSES” (THE REGENTS OF THE UNIVERSITY OF CALIFORNIA, priority 2013, published 2016)

Assays:
[1] = tested on: soybean plants; assay: Soybean drought stress assay; type: in vivo; conditions: 50 μM, aerosol every 3 days
Method: FIG. 8A-FIG. 8B. Quinabactin confers drought stress tolerance to wild-type plants. (A) Effect of quinabactin on Arabidopsis drought tolerance. Two-week-old plants were subjected to drought stress by withholding water and were photographed after 12 days. During the drought period, plants were treated every 3 days with 25 μM compound. Plants were re-hydrated after 2 weeks drought treatment; the number of surviving plants (out of total number tested) for each treatment is shown next to each image. (B) Effects of quinabactin on soybean. Two-week-old plants were subjected to drought stress by withholding water and photographed after 8 days drought treatment. […]
Physiological assays were performed on Arabidopsis plants grown at 22±2° C. and relative humidity (RH) 45±10% under a 16/8-h light/dark cycle. […] 12 4-week old plants were sprayed per compound or control analyzed. After overnight pre-treatment with compounds, the aerial portions were detached from roots, and their fresh weight measured at 20 min intervals over a 2 hour time period. […] The leaf impressions were analyzed by light microscopy and stomatal apertures were determined from the pore widths using ImageJ 1.43v software (National Institutes of Health, USA). […] Pots were covered in Parafilm to so that the water loss measured was transpiration mediated. […]

[2] = tested on: ABI2 with PYR/PYL receptors; assay: Receptor-mediated PP2C inhibition assay with ABI2, Example 1; type: biochemical, Arabidopsis; conditions: 10 μM; receptors PYR1, PYL1, PYL2, PYL3 and PYL5
Method: FIG. 2A-FIG. 2C. Novel ABA agonists inhibit PPC2 activity through multiple PYR/PYL. (A) Chemical structure of naturally occurring (+)-ABA and selected ABA agonists. (B) and (C) HAB1, ABU, and ABI2 PP2C enzyme activity based ABA-agonist assays for various receptors in the presence or absence of 10 μM each test chemical.
HAB1 and PYL proteins were expressed and purified as described previously (Park S Y, et al. (2009) Abscisic Acid Inhibits Type 2C Protein Phosphatases via the PYR/PYL Family of START Proteins. Science 324(5930):1068-1071), with minor modifications. To obtain GST-HAB1, -ABI1 and -ABI2 fusion proteins, the HAB1 cDNA was cloned into pGex-2T whereas ABI1 and ABI2 cDNAs were cloned into the vector pGex-4T-1. […] After 16 hours incubation at 15° C., cells were harvested and recombinant proteins were purified on glutathione agarose as described previously (Park S Y, et al. (2009). To obtain 6×His-PYL receptor fusion proteins, receptor cDNAs for all 13 ABA receptors were cloned into the vector pET28 and expressed and purified as described previously (Mosquna A, et al. (2011) Potent and selective activation of abscisic acid receptors in vivo by mutational stabilization of their agonist-bound conformation. PNAS 108(51):20838-20843); this yielded soluble and functional protein (assessed using receptor-mediated PP2C inhibition assays) for all receptors except PYL7, PYL11 and PYL12. […]

[3] = tested on: HVA1 and HvDRF1; assay: Quantitative RT-PCR of ABA-responsive genes in barley; type: in vivo
Excerpt: FIG. 13A-FIG. 13E. LC66C6 modulates ABA responses in diverse species. Germination inhibition (A) and transpirational water loss in detached leaves 2-hours after detachment (B) in response to compounds shown. The expression of ABA-responsive marker genes in Soybean (C), Barley (D) and Maize (E) after application of chemicals. D, P, L and A indicate DMSO, pyrabactin, LC66C6 and (+)-ABA, respectively.
Total RNA was isolated using Plant RNA purification reagent (Invitrogen, USA) according to the manufacturer's instructions. cDNA was synthesized from 1 μg of total RNA using the QantiTec reverse transcription kit (Qiagen, USA). Real-time PCR using Maxima® SYBR Green/Fluorescein qPCR Master Mix (Fermentas) was performed with the iQ5 real-time PCR detection system (Bio-Rad, Hercules, Calif.). The relative amounts of target mRNAs were determined using the relative standard curve method and were normalized by relative amount of internal control mRNA. Biological triplicate experiments were performed.

CCCN1C(=O)CCc2cc(NS(=O)(=O)Cc3ccc(C)cc3)ccc21 [LC66C6] was tested, and the Drought stress tolerance [1] was “confers drought stress tolerance similar to that conferred by treatment with (+)-ABA”, the “PP2C inhibition of ABI2” value [2] was over 70% and the “Expression of ABA-responsive genes HVA1 and HvDRF1” value [3] was “moderately induces”.
